The results in this text go back to ChEMBL document CHEMBL1155519, “Discovery of N-phenyl-4-(thiazol-5-yl)pyrimidin-2-amine aurora kinase inhibitors” (J Med Chem, 2010).

pIC50, pKi: −log10 of the molar value. Activity calls are given as the source filed them. The calls are words filed in the database; no cut-off is given here.

The target of one experiment is T1, Aurora kinase A (Homo sapiens, UniProt O14965).
T1 sequence (O14965 whole entry): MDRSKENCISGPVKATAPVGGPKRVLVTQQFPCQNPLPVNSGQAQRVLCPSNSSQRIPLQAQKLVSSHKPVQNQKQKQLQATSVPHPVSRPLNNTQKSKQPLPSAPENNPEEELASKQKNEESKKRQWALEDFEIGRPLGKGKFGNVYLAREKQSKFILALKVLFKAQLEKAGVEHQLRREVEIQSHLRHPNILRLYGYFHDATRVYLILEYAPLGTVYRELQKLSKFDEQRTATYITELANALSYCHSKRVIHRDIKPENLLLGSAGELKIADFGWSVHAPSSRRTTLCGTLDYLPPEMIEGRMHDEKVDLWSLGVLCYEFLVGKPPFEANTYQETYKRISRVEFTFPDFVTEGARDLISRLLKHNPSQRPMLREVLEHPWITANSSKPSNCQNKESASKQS
The experiment can be described thus: Inhibition of human recombinant Aurora A after 30 mins.

The target of another experiment is Aurora kinase B (Homo sapiens, UniProt Q96GD4). The experiment can be described thus: Inhibition of human recombinant Aurora B after 60 mins.
Experiment [1] deals with Cyclin-dependent kinase 1 (Homo sapiens, UniProt P06493). The experiment can be described thus: Inhibition of CDK1.
Experiment [2] deals with Cyclin-dependent kinase 4 (Homo sapiens, UniProt P11802). The experiment can be described thus: Inhibition of CDK4.
The target of experiment [3] is Cyclin-dependent kinase 7 (Homo sapiens, UniProt P50613). The experiment can be described thus: Inhibition of CDK7.
The target in experiment [4] is Cyclin-dependent kinase 9 (Homo sapiens, UniProt P50750). The experiment can be described thus: Inhibition of CDK9.
The test system of the next experiment is A2780. The experiment can be described thus: Cytotoxicity against human A2780 cells after 96 hrs by MTT assay. The format is functional, cell-based. The conditions noted are these: A2780, 96 h.
In a further experiment the test system is MIA PaCa-2. The experiment can be described thus: Cytotoxicity against human MIAPaCa2 cells after 96 hrs by MTT assay. The conditions noted are these: MIA PaCa-2, 96 h. The format is functional, cell-based.
Experiment [5] is described as follows: Inhibition of Aurora kinase in human A549 cells assessed as concentration required for half-maximal inhibition of histone H3 serine-10 phosphorylation after 7 hrs immunofluorescence microscopy. In kind it is cell-based. The conditions noted are these: A549, 7 h.
For experiment [6], the target named is Cyclin-dependent kinase 2 (Homo sapiens, UniProt P24941).
In the next experiment the test system is MCF7. The experiment can be described thus: Induction of p53 protein expression in human MCF7 cells at 0.07 to 10 uM after 7 hrs by fluorescent microscopy. The format is functional, cell-based.
Experiment [7] relates to U2OS. The experiment can be described thus: Inhibition of Aurora kinase in asynchronous human U2OS cells assessed as reduction of histone H3 serine-10 phosphorylation at 150 nM after 7 hrs immunofluorescence microscopy. The format is cell-based.
In experiment [8] the test system is U2OS. The experiment can be described thus: Inhibition of Aurora kinase in nocodazole-synchronized human U2OS cells assessed as reduction of histone H3 serine-10 phosphorylation at 0.07 to 10 uM after 2 hrs immunofluorescence microscopy. In kind it is cell-based.

Cyclin-dependent kinase 7, sequence (P50613 whole entry): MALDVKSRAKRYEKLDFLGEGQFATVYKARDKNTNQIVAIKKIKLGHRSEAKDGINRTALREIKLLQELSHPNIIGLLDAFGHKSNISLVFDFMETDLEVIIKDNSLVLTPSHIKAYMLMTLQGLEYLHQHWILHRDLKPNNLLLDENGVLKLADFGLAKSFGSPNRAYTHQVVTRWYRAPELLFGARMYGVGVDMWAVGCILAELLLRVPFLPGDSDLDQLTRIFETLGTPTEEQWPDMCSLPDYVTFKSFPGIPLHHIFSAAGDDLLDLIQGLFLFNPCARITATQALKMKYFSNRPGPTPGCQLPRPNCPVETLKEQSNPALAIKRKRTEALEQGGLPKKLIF
Aurora kinase B, sequence (Q96GD4 whole entry): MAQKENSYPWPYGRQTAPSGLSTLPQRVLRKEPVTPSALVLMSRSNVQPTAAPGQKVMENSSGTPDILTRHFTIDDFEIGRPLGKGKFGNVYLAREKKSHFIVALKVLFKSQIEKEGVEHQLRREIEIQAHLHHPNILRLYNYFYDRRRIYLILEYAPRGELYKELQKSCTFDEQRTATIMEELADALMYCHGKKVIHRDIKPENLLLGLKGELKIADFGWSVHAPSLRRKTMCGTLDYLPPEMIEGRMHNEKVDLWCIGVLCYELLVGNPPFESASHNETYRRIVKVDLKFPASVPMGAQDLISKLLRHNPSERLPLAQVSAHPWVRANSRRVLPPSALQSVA
Cyclin-dependent kinase 1, sequence (P06493 whole entry): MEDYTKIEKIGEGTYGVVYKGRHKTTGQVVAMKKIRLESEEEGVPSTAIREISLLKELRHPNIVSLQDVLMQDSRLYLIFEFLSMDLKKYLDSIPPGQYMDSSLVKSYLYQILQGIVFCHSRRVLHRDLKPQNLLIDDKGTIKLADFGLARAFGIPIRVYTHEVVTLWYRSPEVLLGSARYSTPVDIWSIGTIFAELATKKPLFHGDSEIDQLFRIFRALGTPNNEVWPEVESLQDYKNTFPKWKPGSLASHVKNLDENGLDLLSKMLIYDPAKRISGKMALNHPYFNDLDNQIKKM
Cyclin-dependent kinase 9, sequence (P50750 whole entry): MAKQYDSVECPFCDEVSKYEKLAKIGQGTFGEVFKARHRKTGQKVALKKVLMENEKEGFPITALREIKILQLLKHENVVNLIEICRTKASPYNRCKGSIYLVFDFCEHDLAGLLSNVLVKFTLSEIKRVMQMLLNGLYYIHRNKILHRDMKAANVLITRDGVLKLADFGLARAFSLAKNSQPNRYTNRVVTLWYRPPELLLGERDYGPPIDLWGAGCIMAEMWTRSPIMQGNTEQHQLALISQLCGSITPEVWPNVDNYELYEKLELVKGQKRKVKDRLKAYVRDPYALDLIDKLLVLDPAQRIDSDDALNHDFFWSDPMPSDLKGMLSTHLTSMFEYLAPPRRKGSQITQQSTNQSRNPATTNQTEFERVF
Cyclin-dependent kinase 4, sequence (P11802 whole entry): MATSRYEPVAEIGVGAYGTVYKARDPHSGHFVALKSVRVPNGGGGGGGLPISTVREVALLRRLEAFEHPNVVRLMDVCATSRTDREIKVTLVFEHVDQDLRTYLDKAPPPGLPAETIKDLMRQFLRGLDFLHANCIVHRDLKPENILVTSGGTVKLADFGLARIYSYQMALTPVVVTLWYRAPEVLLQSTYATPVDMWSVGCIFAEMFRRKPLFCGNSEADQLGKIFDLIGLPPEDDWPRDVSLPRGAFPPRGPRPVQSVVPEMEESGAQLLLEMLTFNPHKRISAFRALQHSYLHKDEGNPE

As for `CC(=O)N1CCN(c2ccc(Nc3nccc(-c4sc(N)nc4C)n3)cc2)CC1`, the negative logarithm of the Ki (pKi) on Aurora kinase A is 8.12; at Aurora kinase B it was 8.42; in [1], below 5.00; in [2] it was 5.90; in experiment [3], 5.67; in experiment [4], 6.58. The compound also showed a negative logarithm of the Ki (pKi) in experiment [6] of 6.28. The pIC50 in the experiment on A2780 is 6.62; in the experiment on MIA PaCa-2, 6.31; in [5], 6.23.
On to `CNc1nc(C)c(-c2ccnc(Nc3cc(OC)c(OC)c(OC)c3)n2)s1`, for which the pKi on Aurora kinase A was 9.00; at Aurora kinase B, 8.52; in experiment [1] it was 6.44; in [2], 6.02; in [3] it was 6.43; in experiment [4], 8.22. In addition, the negative logarithm of the Ki (pKi) in experiment [6] is 6.59. In addition, the pIC50 is 7.62 in the experiment with A2780, 7.21 in the experiment on MIA PaCa-2 and 6.55 in experiment [5]. Also, the outcome in the experiment with MCF7 and in the experiment with U2OS [7] was inactive. In addition, the inhibition entry in the experiment with U2OS [8] is “Active”.
`CCNc1nc(C)c(-c2ccnc(Nc3cc(OC)c(OC)c(OC)c3)n2)s1`: the pKi at Aurora kinase A was 8.52; at Aurora kinase B it was 8.22; in experiment [1], 5.91; in experiment [2], below 5.00; in experiment [3], 5.86; in [4], 6.25. In addition, the pKi in experiment [6] was 6.33. In addition, the pIC50 is 6.41 in the experiment with A2780, 6.00 in the experiment with MIA PaCa-2 and 5.73 in experiment [5]. The outcome with MCF7 and in the experiment with U2OS [7] was inactive. The inhibition result with U2OS [8] was “Active”.
As to `CNc1nc(C)c(-c2ccnc(Nc3ccc(N4CCOCC4)cc3)n2)s1`, the pKi at Aurora kinase A was 7.72; on Aurora kinase B, 8.03; in experiment [1], 5.41; in experiment [2] it was 6.03; in experiment [3] it was below 5.00; in experiment [4], 5.58. This compound also had a negative-log Ki (pKi) in [6] of 6.81. Moreover, the negative-log IC50 (pIC50) is 6.84 with A2780, 6.56 with MIA PaCa-2 and 5.43 in experiment [5]. Also, the outcome with MCF7 and with U2OS [7] was inactive. The inhibition entry in the experiment with U2OS [8] was “Active”.
Regarding `CCNc1nc(C)c(-c2ccnc(Nc3ccc(CNC(C)=O)cc3)n2)s1`, the negative logarithm of the Ki (pKi) at Aurora kinase A is 8.30; on Aurora kinase B, 8.40; in experiment [1], 6.62; in experiment [2], 7.42; in experiment [3], 6.77; in experiment [4], 8.05. Further, in experiment [6], the pKi was 7.49. Also, the figures for the pIC50 (with A2780; with MIA PaCa-2; in [5]) were 7.09, 6.64 and 6.12, respectively.
Regarding `CC(=O)N1CCN(c2ccc(Nc3nccc(-c4sc(C)nc4C)n3)cc2)CC1`, the negative-log Ki (pKi) at Aurora kinase A was 8.09; at Aurora kinase B it was 7.89; in experiment [1] it was 5.72; in [2], 6.03; in experiment [3], 5.55; in experiment [4] it was 5.94. In experiment [6], this compound gave a pKi of 6.36. The figures for the negative-log IC50 (pIC50) (in the experiment with A2780; with MIA PaCa-2; in [5]) were 6.52, 6.22 and 6.44, respectively.
Take `Cc1nc(C)c(-c2ccnc(Nc3ccc(N4CCOCC4)cc3)n2)s1`: the pKi on Aurora kinase A was 8.40; at Aurora kinase B it was 8.05; in [1], below 5.00; in [2] it was 5.66; in experiment [3] it was below 5.00; in experiment [4], below 5.00. The compound further showed a negative logarithm of the Ki (pKi) in experiment [6] of 5.98. The values for the pIC50 (in the experiment with A2780; in the experiment on MIA PaCa-2; in experiment [5]) were 6.48, 6.06 and 6.07, respectively. Also, the result in the experiment with MCF7 and in the experiment on U2OS [7] was inactive. The inhibition result with U2OS [8] was “Active”.
Consider `Cc1nc(C)c(-c2ccnc(Nc3ccc(N4CCN(S(C)(=O)=O)CC4)cc3)n2)s1`, for which the negative logarithm of the Ki (pKi) on Aurora kinase A is 8.04; on Aurora kinase B, 7.74; in experiment [1] it was below 5.00; in experiment [2] it was below 5.00; in experiment [3] it was below 5.00; in experiment [4], 5.83. The pKi in experiment [6] was 5.40. The negative logarithm of the IC50 (pIC50) in the experiment with A2780 was 6.53; in the experiment with MIA PaCa-2 it was 6.22; in experiment [5], 5.95.
Take `CNc1nc(C)c(-c2ccnc(Nc3ccc(N4CCN(C(C)=O)CC4)cc3)n2)s1`: the pKi is 7.92 at Aurora kinase A; 8.01 on Aurora kinase B; 6.07 in experiment [1]; 7.66 in experiment [2]; 5.97 in [3]; 6.35 in experiment [4]. The compound further showed a negative-log Ki (pKi) in [6] of 6.53. Also, the negative logarithm of the IC50 (pIC50) with A2780 is 6.66; in the experiment with MIA PaCa-2, 6.21.
Take `CCNc1nc(C)c(-c2ccnc(Nc3ccc(N4CCOCC4)cc3)n2)s1`: the pKi at Aurora kinase A is 7.85; at Aurora kinase B, 8.22; in experiment [1], below 5.00; in experiment [2], 6.71; in experiment [3] it was below 5.00; in experiment [4], 6.25. In [6], this compound showed a negative-log Ki (pKi) of 6.82. The pIC50 was 7.09 in the experiment with A2780, 6.76 in the experiment with MIA PaCa-2 and 6.24 in experiment [5]. The result in the experiment on MCF7 and with U2OS [7] was inactive. Moreover, the inhibition entry in the experiment on U2OS [8] is “Active”.
Turning to `CNc1ccc(Nc2nccc(-c3sc(C)nc3C)n2)cc1`, the pKi at Aurora kinase A is 7.74; on Aurora kinase B, 7.48; in experiment [1], 6.04; in experiment [2], 6.08; in experiment [3], 5.37; in [4], 6.46. In experiment [6], this compound gave a pKi of 6.54. The results for the pIC50 (in the experiment on A2780; in the experiment with MIA PaCa-2; in experiment [5]) were 6.83, 6.63 and 5.75, respectively.
`COc1cc(Nc2nccc(-c3sc(C)nc3C)n2)cc(OC)c1OC`: the pKi at Aurora kinase A is 9.40; on Aurora kinase B, 8.70; in [1] it was 6.15; in [2], 6.18; in [3], 6.61; in [4], 7.96. Moreover, in experiment [6], the negative logarithm of the Ki (pKi) is 6.62. In addition, the pIC50 with A2780 was 8.00; with MIA PaCa-2, 7.66; in experiment [5] it was 6.89. Besides, the outcome with MCF7 and with U2OS [7] was inactive. The inhibition entry with U2OS [8] is “Active”.
Take `Cc1nc(C)c(-c2ccnc(Nc3ccc(N)cc3)n2)s1`: the pKi is 7.51 on Aurora kinase A; 6.11 in experiment [1]; 6.09 in experiment [2]; 5.59 in experiment [3]; 6.47 in [4]; 6.77 in [6]. Besides, the negative-log IC50 (pIC50) is 6.23 with A2780, 5.91 in the experiment with MIA PaCa-2 and 6.03 in experiment [5]. Besides, the outcome with MCF7 was inactive. Moreover, the result with U2OS [7] was Active. The inhibition result with U2OS [8] is “Active”.
